Source: a melting point compilation (Tetko et al.; mined from patent text by program, amines drawn as free bases though some values may be those of a salt)

Row | melting point | Compound
1 | 114 to 117 °C | CCCc1c(OCCCCCC(=O)c2ccc(OC)c(OC)c2)ccc(C(=O)O)c1O
2 | 111 to 112 °C | CCOC(=O)c1ccc(CCN(C)CCCC(C#N)(c2ccc(OC)c(OC)c2)C(C)C)cc1 (stereo not drawn)
3 | 65 °C | CC(=O)CS(=O)(=O)c1cccc2ccccc12
4 | 141 to 143 °C | CC1(C)Oc2ccc3nc(Cl)ccc3c2C(NCCc2ccccc2)C1O (stereo not drawn)
5 | 167 to 168 °C | c1ncn(CCc2ccc3c(c2)-c2[nH]nc(-c4ccsc4)c2C3)n1
6 | 220 to 221 °C | CN1CC[C@@H](c2c(O)cc(O)c3c(=O)cc(-c4cc(O)ccc4Cl)oc23)[C@@H]1CO
7 | 99.5 to 101 °C | O=C(NO)Oc1ccccc1
8 | 122 to 123 °C | Cc1cccc(C2=NC(C)(C(C)C)C(=S)N2)c1 (stereo not drawn)
9 | 227 °C | NC(CF)(Cc1cccc(O)c1)C(=O)O (stereo not drawn)
10 | 175 to 176 °C | CC(NC(=O)N1CCc2cc(S(=O)(=O)N3CCN(c4cccc(Cl)c4)CC3)ccc21)C(=O)O (stereo not drawn)
11 | 259 °C | O=C(NN=CC=Cc1ccc([N+](=O)[O-])o1)c1cc2ccccc2cc1O
12 | 160 °C | CC(C)(C)NS(=O)(=O)c1ccc(C(=O)c2ccc(F)cc2)cc1
13 | 212 to 215 °C | Cc1cccc(Nc2cc(Nc3ccc(OCC(N)=O)cc3)ncn2)c1
14 | 100 to 103 °C | COC(=O)c1ccc(C(=O)NCc2cccc(O)c2)cc1C
15 | 180 to 181 °C | O=C(Cc1ccc(-c2cccc(F)c2)cc1)Nc1n[nH]c2c1CCC2
16 | 85 °C | CCC1(c2ccccc2)OC(C(=O)O)Oc2ccc(Cl)cc21 (stereo not drawn)
17 | 250 °C | O=C(O)CCON=c1c2nccc3cccc(c32)n2cccc12
18 | 212 to 214 °C | CCCCC(CC(=O)Nc1cc(C(N)=O)ccc1C(C)(C)C)c1cc(Cl)c(OC)cc1OC (stereo not drawn)
19 | 77 to 78 °C | O=C1c2ccccc2C(=O)N1CCCCOc1ccccn1
20 | 266 to 271 °C | Oc1cc2c3cc(O)c(O)cc3n(Cc3ccccc3)c2cc1O
21 | 225 to 227 °C | O=C(NC(=O)c1c(Cl)cccc1Cl)Nc1cc(-c2ccc(-c3ccccc3)cc2)on1
22 | 107 to 109 °C | CO[C@H]([C@@H](C)C(=S)NCCc1ccccc1)[C@@H]1CCCN1C(=O)OC(C)(C)C

More lines, now with the values behind:

Row | Compound | melting point
23 | COc1cc2c(Nc3ccc(Cl)cc3F)ncnc2cc1OCCCSc1nccn1C | 199 to 201 °C
24 | O=C1NC(Cc2ccc(OCc3ccccc3)cn2)C(=O)NC1Cc1ccc(Cl)cc1 (stereo not drawn) | 227 to 229 °C
25 | CCOc1cc(N)c([N+](=O)[O-])cc1NCCO | 157 to 158 °C
26 | CN(C)c1ccccc1CSC1=NC(=O)NC1(C)C | 160 to 162 °C
27 | CS(=O)c1c(Br)nn(-c2c(Cl)cc(C(F)(F)F)cc2Cl)c1N (stereo not drawn) | 135 to 136 °C
28 | CC(CCC(=O)NC(C)(C)C)C1CC=C2C3=C(CCC21C)C1(C)CCC(O)C(C)(C)C1CC3 (stereo not drawn) | 171 to 176 °C
29 | CC1OC1C1CC(O)C2(C)CCC3C(CCC4CC(OC5CCCCO5)CC(C)C43C)C12 (stereo not drawn) | 172 to 174 °C
30 | NC(=O)C1N=C(c2ccccc2)c2cc(Cl)ccc2NC1=O (stereo not drawn) | 255 to 256 °C
31 | COc1ccc(CNc2nc(SC)ncc2C(=O)Nc2cncnc2)cc1Cl | 238 to 240 °C
32 | O=Cc1ccc2cc3ccccc3cc2c1 | 201 to 202 °C
33 | COc1cc2c(cc1OC)CN(CN1CCc3cc(OC)c(OC)cc3C1)CC2 | 126 °C
34 | Cc1nc([C@@H]2C[C@H]2c2ccc3ccccc3n2)cc(-n2nc(C)nc2C)n1 (relative stereo) | 140 to 141 °C
35 | CC(=CC(=O)O)c1cccc(-c2cc3c(cc2C)C(C)(C)CCC3(C)C)c1 | 89 to 90 °C
36 | Cc1sc2c(Br)c3ccccc3c(-c3ccc(OS(=O)(=O)c4scc(C(=O)O)c4O)c(C4CCCC4)c3)c2c1C | > 230 °C
37 | O=C(Nc1cnc2c(c1)nc1n2CCC1O)c1cc2cc(F)ccc2n1Cc1cccc(F)c1 (stereo not drawn) | 288 to 290 °C
38 | CCCCCCCCCCCCCCN(CCCCCCCCCCCCCC)S(=O)(=O)c1ccc(C)cc1 | 54 °C
